Molecules are shown by their SMILES.

The subject of the assay is hypertonic saline-induced IOP increase in rabbits. Briefly: Intraocular pressure (IOP) lowering activity in hypertonic saline-induced IOP increase in rabbits. It is filed as in vivo, New Zealand White rabbits. Further details: unit not given here. Particulars: topical, versus vehicle and versus basal IOP before hypertonic saline injection. How it is done: Intraocular Pressure (IOP) Lowering Activity in Hypertonic Saline-Induced IOP Increase in Rabbits
The Intraocular pressure (TOP) lowering activity of compound (Ia) (Example 1) was assessed in an animal model of elevated IOP.
Adults male New Zealand White rabbits weighting 1.8-2.0 Kg were used in the experiments.
IOP was measured using a Tono-Pen XL prior to hypertonic saline injection (basal) and at 30, 60, 120 and 240 min thereafter. Vehicle (5% cremophor-EL; 0.3% DMSO; 0.2 mg/ml bac in PBS pH 6.0,) or compound (Ia) dissolved in the vehicle at different concentrations (0.1%, 0.3% and 1%) was instilled as eye drops immediately after hypertonic saline injection. Eyes were randomly assigned to different treatment groups. Vehicle or compound (Ia) was directly instilled into the conjunctiva pocket at the desired doses. One drop of 0.4% oxybuprocaine hydrochloride (Novesine, Sandoz) was instilled in each eye immediately before each set of pressure measurements.
Results are reported in Table in which the ocular hypotensive activity of compound (Ia) at different is expressed as IOP change (at 60 and 120 minutes following topical administration) versus vehicle and versus IOP at basal before hypertonic saline injection.

For `CCCC(=O)OCCCCO[N+](=O)[O-]` [Compound (Ia), 4-Nitrooxybutan-1-Ol Butyrate], the IOP change by setting is: (0.1% eye drops, 60 min after administration) −10.3 ± 0.3; (0.1% eye drops, 120 min after administration) −5 ± 1.8; (0.3% eye drops, 60 min after administration) −16.5 ± 3.8; (0.3% eye drops, 120 min after administration) −9 ± 2.1; (1% eye drops, 60 min after administration) −21.1 ± 4.5; (1% eye drops, 120 min after administration) −15.1 ± 2.3.

The record behind these values is US9895335B2, “Ophthalmic compositions containing a nitric oxide donor” (NICOX SCIENCE IRELAND, priority 2013, dated 2018).
